Data published in patent publication US20090074831A1, “LOCAL […] […] OF mTOR INHIBITORS IN COMBINATION WITH PEROXISOME PROLIFERATORS-ACTIVATED RECEPTOR STIMULATORS” (priority 2007, published 2009).
Blank lines part the entries; values can stand above or below the compound they belong to.

Tests used:
[1] = tested on: human smooth muscle cells; test: Inhibition of human vascular cell proliferation with cladribine, PDGF-stimulated smooth muscle cells; type: cell-based
Protocol: To assess the ability of cladribine to prevent cell proliferation, human smooth muscle or endothelial cells (Clonetics, Walkersville, Md.) were seeded at a density of 2000 cells/cm^2 (approximately 3600 cells/well) into each well of 12-well plates and cultured with 1.5 ml of growth medium containing five percent fetal calf serum (FCS). After twenty-four hours, the growth medium was changed and fresh medium containing 10 ng/ml platelet-derived growth factor AB (PDGF AB; LIFE Technologies), as well as various concentrations of cladribine (0.001-10,000 nM) were added with triplicate wells. Medium was replaced with fresh cladribine-containing medium after three days. On day six, cells were detached by trypsinization to yield a cell suspension, lightly centrifuged to pellet and then counted manually using a Neubauer hemocytometer system. Cell viability was assessed by trypan blue exclusion.

[2] = tested on: human coronary artery smooth muscle cells; test: Anti-proliferative activity in non-synchronized cultured human coronary artery smooth muscle cells stimulated with two percent fetal bovine serum; type: cell-based
Excerpt: The multiple curves represent various concentrations of mycophenolic acid ranging from zero to one thousand nanomolar concentrations.
FIG. 58 illustrates, in graphical format, the anti-proliferative activity of cladribine in non-synchronized cultured human coronary artery smooth muscle cells stimulated with two percent fetal bovine serum.
The multiple curves represent various concentrations of cladribine ranging from zero to nine hundred nanomolar concentrations.

[3] = in vivo release kinetics from rapamycin / cladribine EVA/BMA coating, porcine pharmacokinetics studies; set-up: species or system Yorkshire pigs; settings: EVA/BMA basecoat with 200 microgram BMA topcoat, Bx Velocity stents
Excerpt: The basecoat is applied to Bx Velocity® stents and implanted into Yorkshire pigs.
The basecoat is applied to BxVelocity® stents and implanted into Yorkshire pigs.

[4] = tested on: human coronary artery smooth muscle cells; test: antiproliferative effects of PX867 on cultured human coronary artery smooth muscle cells; type: cell-based; settings: PX867 alone, concentration of about 10^−6 (unit not given)
Excerpt: A PI3 kinase inhibitor can affect restinosis when administered by local or systemic delivery alone or in combination with sirolimus. FIGS. 87 and 88 illustrate the antiproliferative effects of PX867 on cultured human coronary artery smooth muscle cells alone (FIG. 87) or in combination with sirolimus (FIG. 88). […] Curve 8702 illustrates the percent inhibition for various concentrations. In FIG. 88, the six curves 8802, 8804, 8806, 8808, 8810 and 8812 represent various concentrations of PX867 with various concentrations of sirolimus. […] More specifically, curve 8812 illustrates the percent inhibition for a 240 nM PX-867 concentration. […] This may be compared to curve 8804 which represents a 15 nM PX-867 concentration. As one can see, the percent inhibition increases as the concentration of sirolimus increases. Accordingly, a potent PI3 kinase inhibitor, such as PX-867, can improve the inhibition of coronary artery smooth muscle cell proliferation either as a stand alone treatment or via combination with another restenotic agent, such as sirolimus.

[5] = tested on: human coronary artery smooth muscle cells; test: Anti-proliferative activity in synchronized cultured human coronary artery smooth muscle cells stimulated with two percent fetal bovine serum; type: cell-based; settings: for effect on anti-proliferative rapamycin dose response curves: leftward and upward shift
Excerpt: (§1) The multiple curves represent various concentrations of topotecan ranging from zero to three hundred nanomolar concentrations.
(§2) The multiple curves represent various concentrations of etoposide ranging from zero to eight hundred nanomolar concentrations.
The multiple curves represent various concentrations of Panzem® ranging from zero to 100 micromolar concentrations.

[6] = tested on: human coronary artery smooth muscle cell; settings: concentrations up to 30,000.00 nanomolar (6.6 to 30,000.00 nanomolar tested)
Excerpt: In vitro cytotoxicity tests or assays may be utilized to determine if drugs, agents and/or compounds are potentially toxic and the level of toxicity. Essentially, in vitro cytotoxicity assays determine acute necrotic effects by a drug causing direct cellular damage. The idea behind these assays is that toxic chemicals affect basic functions of cells which are common to all cells. […] There are a number of different assays that may be utilized. In the present invention, the cytotoxicity assay utilized is based upon the measurement of cellular metabolic activity. A reduction in metabolic activity is an indication of cellular damage. Tests that can measure metabolic function measure cellular ATP levels or mitochondrial activity via MTS metabolism. FIG. 69 is a graphical representation of the results of an MTS assay of Panzem®.

[7] = in vitro release of sirolimus and cilostazol from dual drug coating; type: physicochemical; settings: single-layer sirolimus + cilostazol coating of FIG. 83
cell viability = cell viability assay; type: cell-based
Excerpt: as §1, §2

[8] = in vivo release kinetics from rapamycin / mycophenolic acid EVA/BMA coating, porcine pharmacokinetics studies; settings: EVA/BMA basecoat, 180 micrograms each drug, BMA topcoat 0, 100 or 200 micrograms
[9] = drug concentration in liquid formulations (liquid chromatography / HPLC assay); type: physicochemical; settings: 4 mg/ml PEG 200 formulation
Excerpt: In accordance with exemplary embodiments of the present invention, a series of liquid formulations were developed for the local or regional delivery of water insoluble compounds such as sirolimus and its analogs, including CCl-779, ABT-578 and everolimus, through weeping balloons and catheter injection needles. […] These liquid formulations increase the apparent solubility of the pharmacologically active but water insoluble compounds by two to four orders of magnitude as compared to the solubility limits of the compounds in water. These liquid formulations rely on the use of a very small amount of organic solvents such as Ethanol (typically less than two percent) and a larger amount of safe amphiphilic (of or relating to a molecule having a polar, water soluble group attached to a non-polar, water insoluble […]) excipients such as polyethylene glycol (PEG 200, PEG 400) and vitamin E TPGS to enhance the solubility of the compounds. These liquid formulations of highly water insoluble compounds are stable and readily flowable at room temperature. Certain excipients, such as Vitamin E TPGS and BHT may be utilized to enhance the storage stability of sirolimus compounds through their anti-oxidation properties. […]

tumor cell lines = settings: Woo et al., J. Med Chem 2002; cited from earlier work
[10] = tested on: human coronary artery smooth muscle cell; test: in vitro cell culture study, coronary artery smooth muscle cell proliferation (trichostatin A); type: cell-based
Excerpt: FIG. 51 is a graph of the inhibition of coronary artery smooth muscle cells by trichostatin A in a cell culture study.

in vivo elution compared with rapamycin [3]: elutes more rapidly than rapamycin
Structure (SMILES): Nc1nc(Cl)nc2c1ncn2[C@H]1C[C@H](O)[C@@H](CO)O1 [Cladribine, 2-chlorodeoxyadenosine]
potency as inhibitor of smooth muscle cells relative to endothelial cells [1]: approximately twice
inhibition of human coronary artery smooth muscle cell proliferation ([2]; cladribine alone): completely inhibits human coronary artery smooth muscle cell proliferation
effect on anti-proliferative rapamycin dose response curves ([2]; cladribine zero to nine hundred nanomolar added to rapamycin, leftward and upward shift): does in fact potentiate the anti-proliferative activity of rapamycin

Structure (SMILES): COC[C@H]1OC(=O)/C(=C\N2CCCC2)C2=C(O)C(=O)C3=C([C@H](OC(C)=O)C[C@]4(C)C(=O)CC[C@@H]34)[C@]21C [PX867]
inhibition of coronary artery smooth muscle cell proliferation [4]: one hundred

Structure (SMILES): COc1cc2c(cc1O)CC[C@@H]1[C@@H]2CC[C@]2(C)[C@@H](O)CC[C@@H]12 [Panzem®, 2-methoxyestradiol]
anti-proliferative activity ([5]; Panzem alone): extremely effective inhibitor of human coronary artery smooth muscle cell proliferation in vitro
effect on percent inhibition by rapamycin ([5]; Panzem zero to 100 micromolar added to rapamycin): increases the percent of inhibition of rapamycin alone
cytotoxicity (MTS assay), cell survival [6]: do not reduce human coronary artery smooth muscle cell survival

Structure (SMILES): O=C1CCc2cc(OCCCCc3nnnn3C3CCCCC3)ccc2N1 [cilostazol, 6[4-(1-cyclohexyl-1H-tetrazol-5-yl)-butoxy]-3,4-dihydro-2-(1H)-quinolinone]
in vitro release [7]: ~35%

Structure (SMILES): COc1cc([C@@H]2c3cc4c(cc3[C@@H](O[C@@H]3O[C@@H]5CO[C@@H](C)O[C@H]5[C@H](O)[C@H]3O)[C@H]3COC(=O)[C@H]23)OCO4)cc(OC)c1O [etoposide]
effect on anti-proliferative rapamycin dose response curves ([5]; etoposide zero to eight hundred nanomolar added to rapamycin): potentiate the anti-proliferative activity of rapamycin
cytotoxicity (cell viability; concentrations up to ten micromolar): non-cytotoxic

Structure (SMILES): COc1c(C)c2c(c(O)c1C/C=C(\C)CCC(=O)O)C(=O)OC2 [mycophenolic acid]
in vivo elution compared with rapamycin [8]: elutes more completely over a shorter duration than the rapamycin
effect on anti-proliferative rapamycin dose response curve ([2]; mycophenolic acid zero to one thousand nanomolar added to rapamycin, leftward and upward shift): potentiates the anti-proliferative activity of rapamycin

concentration relative to the solubility of sirolimus in water [9]: four hundred to about one thousand
Structure (SMILES): CO[C@H]1C[C@@H]2CC[C@@H](C)[C@@](O)(O2)C(=O)C(=O)N2CCCC[C@H]2C(=O)O[C@H]([C@H](C)C[C@@H]2CC[C@@H](O)[C@H](OC)C2)CC(=O)[C@H](C)/C=C(\C)[C@@H](O)[C@@H](OC)C(=O)[C@H](C)C[C@H](C)/C=C/C=C/C=C/1C [rapamycin]

Structure (SMILES): CC[C@@]1(O)C(=O)OCc2c1cc1n(c2=O)Cc2cc3c(CN(C)C)c(O)ccc3nc2-1 [topotecan]
effect on anti-proliferative rapamycin dose response curves ([5]; topotecan zero to three hundred nanomolar added to rapamycin): does in fact potentiate the anti-proliferative activity of rapamycin
cytotoxicity (cell viability; concentrations up to one micromolar): non-cytotoxic

Structure (SMILES): CC(/C=C/C(=O)NO)=C\[C@@H](C)C(=O)c1ccc(N(C)C)cc1 [trichostatin A]
anti-proliferative IC50's (tumor cell lines): low nM range
inhibition of human coronary artery smooth muscle cell proliferation [10]: completely inhibit human coronary artery smooth muscle cell proliferation
IC50 ([10]; read-out: anti-proliferative IC50): ~6 nM
